Test results from US20140187548A1, “6 SUBSTITUTED IMIDAZOPYRAZINES FOR USE AS MPS-1 AND TKK INHIBITORS IN THE TREATMENT OF HYPERPROLIFERATIVE DISORDERS” (BAYER INTELLECTUAL PROPERTY GMBH, priority 2010, published 2014).

Molecular target: T1, human kinase Mps-1 (Homo sapiens, UniProt P33981)
T1 construct: N-terminally GST-tagged human full length recombinant Mps-1 kinase; GST (N); purchased Invitrogen, Karslruhe, Germany PV4071
T1 sequence (P33981 1-857): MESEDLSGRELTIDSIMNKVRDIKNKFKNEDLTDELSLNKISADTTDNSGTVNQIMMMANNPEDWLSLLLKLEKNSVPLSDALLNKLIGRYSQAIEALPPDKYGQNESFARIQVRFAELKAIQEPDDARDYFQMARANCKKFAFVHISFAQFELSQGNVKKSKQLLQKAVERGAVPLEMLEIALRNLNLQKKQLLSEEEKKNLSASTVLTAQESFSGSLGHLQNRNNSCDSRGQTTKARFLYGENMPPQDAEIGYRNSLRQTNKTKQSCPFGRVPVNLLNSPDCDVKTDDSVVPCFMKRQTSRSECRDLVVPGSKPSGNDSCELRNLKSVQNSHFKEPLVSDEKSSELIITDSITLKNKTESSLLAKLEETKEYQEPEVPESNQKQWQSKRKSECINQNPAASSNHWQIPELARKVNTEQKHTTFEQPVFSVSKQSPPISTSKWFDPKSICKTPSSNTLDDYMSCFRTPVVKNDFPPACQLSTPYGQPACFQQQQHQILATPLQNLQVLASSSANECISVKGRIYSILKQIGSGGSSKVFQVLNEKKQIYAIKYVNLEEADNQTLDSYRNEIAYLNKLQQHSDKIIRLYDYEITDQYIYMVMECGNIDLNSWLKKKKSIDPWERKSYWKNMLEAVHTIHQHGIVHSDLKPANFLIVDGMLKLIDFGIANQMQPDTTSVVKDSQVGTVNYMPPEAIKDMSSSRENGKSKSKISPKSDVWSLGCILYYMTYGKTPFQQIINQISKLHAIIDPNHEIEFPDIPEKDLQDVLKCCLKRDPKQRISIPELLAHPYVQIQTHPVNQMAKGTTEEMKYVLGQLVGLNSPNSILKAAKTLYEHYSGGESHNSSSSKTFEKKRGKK
Assay: Mps-1 kinase assay (TR-FRET)
Format: biochemical
Details: N-terminally GST-tagged human full length recombinant Mps-1; 10 μM ATP; 1 μM peptide substrate; 15 min pre-incubation; 60 min at 22° C.
Procedure, shortened: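 TR-FRET read-out: after 1 h binding at 22° C, Eu-labelled anti-phospho-Ser/Thr antibody transfers to SA-XLent on the phosphorylated biotinylated peptide. The enzyme is GST-tagged full-length human Mps-1, typically about 1 nM final, in the linear range.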

Row | Compound | IC50
1 | CC(C)CNc1nc(-c2ccc(S(=O)(=O)NC3CC3)cc2)cn2c(-c3ccc(C(=O)NC4CC4)cc3)cnc12 [Example 1-126, N-cyclopropyl-4-{6-[4-(cyclopropylsulfamoyl)phenyl]-8-[(2-methylpropyl)amino]imidazo[1,2-a]pyrazin-3-yl}benzamide] | 4.4 nM
2 | CC(=O)NCCNc1nc(-c2ccccc2)cn2c(-c3ccc(C(=O)NC4CC4)cc3)cnc12 [Example 2-19, 4-(8-{[2-(acetylamino)ethyl]amino}-6-phenylimidazo[1,2-a]pyrazin-3-yl)-N-cyclopropyl-benzamide] | 8.1 nM
3 | Cc1cc(-c2cnc3c(NCCC(C)CO)nc(-c4ccc(F)cc4)cn23)ccc1C(=O)NC1CC1 (stereo not shown) [Example 10-5, N-cyclopropyl-4-{6-(4-fluorophenyl)-8-[(4-hydroxy-3-methylbutyl)amino]imidazo[1,2-a]pyrazin-3-yl}-2-methyl-benzamide] | 4.8 nM
4 | CC(C)(O)CNc1nc(-c2ccc(F)cc2)cn2c(-c3ccc(C(=O)NC4CC4)c(Cl)c3)cnc12 [Example 1-98, 2-chloro-N-cyclopropyl-4-{6-(4-fluorophenyl)-8-[(2-hydroxy-2-methyl-propyl)amino]imidazo [1,2-a]pyrazin-3-yl} benzamide] | 12.9 nM
5 | CN(C)c1ccc(-c2cn3c(-c4ccc(C(=O)NC5CC5)c(F)c4)cnc3c(NCc3ccnn3C)n2)cc1 [Example 1-120, N-cyclopropyl-4-(6-[4-(dimethylamino)phenyl]-8-{[(1-methyl-1H-pyrazol-5-yl)methyl]amino}imidazo[1,2-a]pyrazin-3-yl)-2-fluorobenzamide] | 16.8 nM
6 | Cc1cc(-c2cnc3c(NCCC(F)(F)F)nc(-c4ccc(CO)cc4)cn23)ccc1C(=O)NC1CC1 [Example 1-123, N-cyclopropyl-4-{6-[4-(hydroxymethyl)phenyl]-8-[(3,3,3-trifluoropropyl)amino]imidazo[1,2-a]pyrazin-3-yl}-2-methyl-benzamide] | 1.2 nM
7 | CC(C)CNc1nc(-c2ccccc2)c(F)n2c(-c3ccc(C(=O)NC4CC4)cc3)cnc12 [Example 5-1, N-cyclopropyl-4-{5-fluoro-8-[(2-methylpropyl)amino]-6-phenylimidazo[1,2-a]pyrazin-3-yl}benzamide] | 67 nM
8 | Cc1cc(-c2cnc3c(NCC(C)(C)O)nc(-c4ccc(F)cc4)cn23)ccc1C(=O)NC1CC1 [Example 1-136, N-cyclopropyl-4-{6-(4-fluorophenyl)-8-[(2-hydroxy-2-methylpropyl)amino]imidazo[1,2-a]pyrazin-3-yl}-2-methylbenzamide] | 7.9 nM
9 | O=C(NC1CC1)c1ccc(-c2cnc3c(NCC4CC4)nc(-c4ccccc4)cn23)cc1 [Example 2-23, N-cyclopropyl-4-{8-[(cyclo-propylmethyl)amino]-6-phenylimidazo[1,2-a]pyrazin-3-yl}benzamide] | 2.7 nM
10 | Cc1cc(-c2cn3c(-c4ccc(C(=O)NC5CC5)cc4)cnc3c(NCC(C)C)n2)cc(C)c1O [Example 1-12, N-cyclopropyl-4-{6-(4-hydroxy-3,5-dimethyl-phenyl)-8-[(2-methyl-propyl)amino]imidazo [1,2-a]pyrazin-3-yl} benzamide] | 3.8 nM
11 | CC(C)CNc1nc(-c2ccc(N3CCOCC3)cc2)cn2c(-c3ccc(C(=O)NC4CC4)cc3)cnc12 [Example 1-91, N-cyclopropyl-4-{8-[(2-methylpropyl)amino]-6-[4-(morpholin-4-yl)phenyl]imidazo[1,2-a]pyrazin-3-yl}benzamide] | 1.5 nM

The next lines start with the values.

Row | IC50 | Compound
12 | 5.6 nM | O=C(NC1CC1)c1ccc(-c2cnc3c(NCCc4nccs4)nc(-c4ccccc4)cn23)cc1 [Example 2-63, N-cyclopropyl-4-(6-phenyl-8-{[2-(1,3-thiazol-2-yl)ethyl]amino}imidazo[1,2-a]pyrazin-3-yl)benzamide]
13 | 6.5 nM | Cc1ccccc1CNc1nc(-c2ccccc2)cn2c(-c3ccc(C(=O)NC4CC4)cc3)cnc12 [Example 2-5, N-cyclopropyl-4-{8-[(2-methylbenzyl)amino]-6-phenylimidazo[1,2-a]pyrazin-3-yl}benzamide]
14 | 6.1 nM | CC(C)(O)CNc1nc(-c2cc(F)c(F)cc2F)cn2c(-c3ccc(C(=O)NC4CC4)cc3)cnc12 [Example 1-133, N-cyclopropyl-4-{8-[(2-hydroxy-2-methylpropyl)amino]-6-(2,4,5-trifluoro-phenyl)imidazo[1,2-a]pyrazin-3-yl}benzamide]
15 | 18.1 nM | CN(C)c1ccc(CNc2nc(-c3ccccc3)cn3c(-c4ccc(C(=O)NC5CC5)cc4)cnc23)cc1 [Example 2-44, N-cyclopropyl-4-(8-{[4-(dimethylamino)benzyl]amino}-6-phenylimidazo[1,2-a]pyrazin-3-yl)benzamide]
16 | 6.2 nM | CC(C)CNc1nc(-c2ccc(C(=O)NC(C)C)c(F)c2)cn2c(-c3ccc(C(=O)NC4CC4)cc3)cnc12 [Example 1-86, 4-{3-[4-(cyclopropyl-carbamoyl)phenyl]-8-[(2-methylpropyl)amino]imidazo[1,2-a]pyrazin-6-yl}-2-fluoro-N-(propan-2-yl)benzamide]
17 | 1.1 nM | Cc1cc(-c2cnc3c(NCCC(F)(F)F)nc(-c4ccc(F)c(CO)c4)cn23)ccc1C(=O)NC1CC1 [Example 1-124, N-cyclopropyl-4-{6-[4-fluoro-3-(hydroxymethyl)phenyl]-8-[(3,3,3-tri-fluoropropyl)amino]imidazo[1,2-a]pyrazin-3-yl}-2-methylbenzamide]
18 | 2.4 nM | O=C(NC1CC1)c1ccc(-c2cnc3c(NCCCC(F)(F)F)nc(-c4ccccc4)cn23)cc1 [Example 2-51, N-cyclopropyl-4-{6-phenyl-8-[(4,4,4-trifluorobutyl)amino]imidazo[1,2-a]pyrazin-3-yl}benzamide]
19 | 5.1 nM | O=C(NC1CC1)c1ccc(-c2cnc3c(NCCC(F)(F)F)nc(-c4ccccc4CO)cn23)cc1Cl [Example 1-97, 2-chloro-N-cyclopropyl-4-{6-[2-(hydroxymethyl)phenyl]-8-[(3,3,3-trifluoropropyl)amino]imidazo[1,2-a]pyrazin-3-yl}benzamide]
20 | 38.6 nM | O=C(NC1CC1)c1ccc(-c2cnc3c(NCc4ccc(C(F)(F)F)cc4)nc(-c4ccccc4)cn23)cc1 [Example 2-20, N-cyclopropyl-4-(6-phenyl-8-{[4-(trifluoromethyl)benzyl]amino}imidazo[1,2-a]pyrazin-3-yl)benzamide]
21 | 1.9 nM | O=C(NC1CC1)c1ccc(-c2cnc3c(NC[C@@H](O)CO)nc(-c4ccccc4)cn23)cc1 [Example 2-81, N-cyclopropyl-4-(8-{[(2R)-2,3-dihydroxypropyl]amino}-6-phenylimidazo[1,2-a]pyrazin-3-yl)benzamide]
22 | 11.2 nM | O=C(NC1CC1)c1ccc(-c2cnc3c(NCCCCN4CCCC4)nc(-c4ccccc4)cn23)cc1 [Example 2-45, N-cyclopropyl-4-(6-phenyl-8-{[4-(pyrrolidin-1-yl)butyl]amino}imidazo[1,2-a]pyrazin-3-yl) benzamide]
23 | 55.7 nM | CC(C)CNc1nc(-c2ccc(C(C)C)cc2)cn2c(-c3ccc(C(=O)NC4CC4)cc3)cnc12 [Example 1-59, N-cyclopropyl-4-{8-[(2-methylpropyl)amino]-6-[4-(propan-2-yl)phenyl]imidazo[1,2-a]pyrazin-3-yl}benzamide]
24 | 217 nM | O=C(NC1CC1)c1ccc(-c2cnc3c(NCc4ccc(OC(F)(F)F)cc4)nc(-c4ccccc4)cn23)cc1 [Example 2-22, N-cyclopropyl-4-(6-phenyl-8-{[4-(trifluoromethoxy)benzyl]amino}imidazo[1,2-a]pyrazin-3-yl)benzamide]
25 | 34.7 nM | CC(C)(O)CNc1nc(-c2ccccc2CO)cn2c(-c3ccc(C(=O)NC4CC4)c(F)c3)cnc12 [Example 1-116, N-cyclopropyl-2-fluoro-4-{6-[2-(hydroxymethyl)phenyl]-8-[(2-hydroxy-2-methylpropyl)amino]imidazo[1,2-a]pyrazin-3-yl}benzamide]
26 | 2.5 nM | Cn1nccc1CNc1nc(-c2ccc(F)cc2)cn2c(-c3ccc(C(=O)NC4CC4)c(F)c3)cnc12 [Example 1-119, N-cyclopropyl-2-fluoro-4-[6-(4-fluorophenyl)-8-{[(1-methyl-1H-pyrazol-5-yl)methyl]amino}imidazo[1,2-a]pyrazin-3-yl]benzamide]
27 | 74.3 nM | CC(C)CNc1nc(-c2ccccc2Oc2ccccc2)cn2c(-c3ccc(C(=O)NC4CC4)cc3)cnc12 [Example 1-64, N-cyclopropyl-4-{8-[(2-methylpropyl)amino]-6-(2-phenoxyphenyl)imidazo[1,2-a]pyrazin-3-yl}benzamide]
28 | 78.9 nM | CC(C)CNc1nc(-c2ccc(Oc3ccccc3)cc2)cn2c(-c3ccc(C(=O)NC4CC4)cc3)cnc12 [Example 1-47, N-cyclopropyl-4-{8-[(2-methylpropyl)amino]-6-(4-phenoxyphenyl)imidazo[1,2-a]pyrazin-3-yl}benzamide]
